Experimental data taken from US4480030A, “Tripeptide derivatives and their application in assaying enzymes” (Pentapharm A.G., priority 1980, dated 1984).
Square brackets hold non-standard residues; d marks the D form. Peptide text beside a SMILES is read from it. * marks the point of attachment. dAad = N[C@H](CCCC(=O)O)C(=O)O; pNA = O=[N+]([O-])c1ccc(N*)cc1; Cbz = O=C(OCc1ccccc1)*

Legend:
[1] = target: T1, human factor Xa (Homo sapiens, UniProt P00742); experiment: Activity of factor Xa obtained by RVV activation of factor X in normal human blood plasma on substrate (split product H-R5 released); format: biochemical; conditions: substrate concentration 2 × 10^-4; TRIS-imidazole buffer pH 8.4, ionic strength 0.3, 37° C.; citrated plasma activated with Russel viper venom 75 seconds; value calculated for 1 ml of citrated plasma
T1 construct: from tissue
T1 sequence (P00742 235-488 limits assumed): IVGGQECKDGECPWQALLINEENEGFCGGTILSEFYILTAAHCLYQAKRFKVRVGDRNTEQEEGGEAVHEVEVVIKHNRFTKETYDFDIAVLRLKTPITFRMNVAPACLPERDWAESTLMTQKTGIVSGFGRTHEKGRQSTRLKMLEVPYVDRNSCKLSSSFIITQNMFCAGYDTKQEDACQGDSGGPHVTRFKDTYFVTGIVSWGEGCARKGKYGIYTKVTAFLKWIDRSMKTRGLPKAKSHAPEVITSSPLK
T1 sequence (P00742 41-179 partner limits assumed): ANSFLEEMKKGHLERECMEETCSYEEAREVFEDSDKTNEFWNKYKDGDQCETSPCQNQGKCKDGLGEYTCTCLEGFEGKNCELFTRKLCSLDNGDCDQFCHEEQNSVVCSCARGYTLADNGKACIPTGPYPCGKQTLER
Experimental: (§1) The values of the factor Xa activity given in Table 4 were determined experimentally in the manner described hereinafter:
For determining the activity of human factor Xa 0.01 ml of normal citrated plasma was mixed with 0.20 ml of a solution of Russel viper venom in TRIS-imidazole buffer having a pH of 8.4 and an ionic strength of 0.3 and containing 15 mmoles of CaCl2 […]. The mixture was incubated for 75 seconds at 37° C. in order to activate factor X present in the plasma and convert it completely into factor Xa. To the incubate there was added first 1.40 ml of TRIS-imidazole buffer (pH 8.4, ionic strength 0.3) heated to 37° C. and then 0.40 ml of a 2×10^-3 M aqueous solution of a substrate of the invention. Thereafter, the quantity of split produce H--R^5 in nanomoles released per minute was determined, and the corresponding value for 1 ml of citrated plasma was calculated.

[2] = target: T2, bovine factor Xa (Bos taurus, UniProt P00743); experiment: Activity of bovine factor Xa solution on chromogenic/fluorogenic substrate (split product H-R5 released); format: biochemical; conditions: substrate concentration 2 × 10^-4; TRIS-imidazole buffer pH 8.4, ionic strength 0.3, 37° C.; factor Xa preparation "Diagen"; value calculated for 1 ml of factor Xa solution
T2 construct: purchased Diagnostic Reagents Ltd., Thame, Great Britain factor Xa preparation "Diagen"
T2 sequence (P00743 234-492 limits assumed): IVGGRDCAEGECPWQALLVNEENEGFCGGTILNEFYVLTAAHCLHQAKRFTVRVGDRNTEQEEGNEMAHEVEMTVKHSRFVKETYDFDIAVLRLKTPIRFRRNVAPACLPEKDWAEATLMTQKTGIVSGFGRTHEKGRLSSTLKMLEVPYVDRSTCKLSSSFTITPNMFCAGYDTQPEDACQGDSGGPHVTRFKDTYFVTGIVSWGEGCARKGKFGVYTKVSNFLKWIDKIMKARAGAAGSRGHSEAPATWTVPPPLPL
T2 sequence (P00743 41-180 partner limits assumed): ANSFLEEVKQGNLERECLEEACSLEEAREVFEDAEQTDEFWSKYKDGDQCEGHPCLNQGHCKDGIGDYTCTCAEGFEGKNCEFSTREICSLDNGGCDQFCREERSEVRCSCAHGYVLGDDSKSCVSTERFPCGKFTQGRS
Experimental: as §1
For determining the activity of bovine factor Xa 1.8 ml of TRIS-imidazole buffer having a pH of 8.4 and an ionic strength of 0.3 was well mixed at 37° C. with 0.025 ml of an aqueous solution of factor Xa preparation "Diagen" (furnisher: Diagnostic Reagents Ltd., Thame, Great Britain) obtained by dissolving the contents of one vial in 0.5 ml of water. To the mixture there was added 0.2 ml of a 2×10^-3 M aqueous solution of a substrate of the invention. Thereafter, the quantity of split product H--R^5 in nanomoles released per minute was determined, and the corresponding value of 1 ml of factor Xa solution was calculated.

Row | Compound | Activity of factor Xa as obtained by activation of factor X in 1 ml of normal human blood plasma by means of RVV, expressed in nanomoles of split product H--R^5 released per minute [1] | Activity of 1 ml of aqueous solution of bovine factor Xa, expressed in nanomoles of split product H--R^5 released per minute [2]
1 | 2-(4-Cbo-- amino)-phenylacetyl-D-Nval--Gly--Arg--pNA.HBr [Example 53] | 510 nanomoles of split product H-- | 680 nanomoles of split product H--
2 | 4-Aminomethyl-cyclohexyl-carbonyl-bonyl-D-Leu--Sar--Arg--pNA.2HBr [Example 43] | 30 nanomoles of split product H-- | 60 nanomoles of split product H--
3 | N=C(N)NCCC[C@H](NC(=O)CNC(=O)[C@@H](CCC(=O)O)NC(=O)OCc1ccccc1)C(=O)Nc1ccc([N+](=O)[O-])cc1 [Example 96, Cbo--D-Glu--Gly--Arg--pNA] (Cbz-[dE]-Gly-Arg-pNA) | 505 nanomoles of split product H-- | 830 nanomoles of split product H--
4 | N=C(N)NCCC[C@H](NC(=O)CNC(=O)[C@@H](CCCC(=O)O)NC(=O)OCc1ccccc1)C(=O)Nc1ccc([N+](=O)[O-])cc1 [Example 102, Cbo--D-Aadi--Gly--Arg--pNA] (Cbz-[dAad]-Gly-Arg-pNA) | 905 nanomoles of split product H-- | 1030 nanomoles of split product H--
5 | BOC--D-(α)-AOA--Gly--Arg--pNA.AcOH [Example 84] | 1690 nanomoles of split product H-- | 2210 nanomoles of split product H--
6 | Cbo--4-aminomethyl-cyclohexyl-carbonyl-D-Leu--176 Sar--Arg--pNA.HBr [Example 42] | 20 nanomoles of split product H-- | 30 nanomoles of split product H--
